This note sets out measurements from patent US9133266B2, “Vitronectin-derived cell culture substrate and uses thereof” (Wisconsin Alumni Research Foundation, priority 2011, dated 2015).

Experiment [1] concerns H1 ES cells. The experiment can be described thus: Media component test: survival and proliferation of dissociated ES cells. It counts as cell-based, human. The following applies: for cell survival and proliferation: FIG. 4A-B; for initial survival of human ES cells: added to defined medium, FIG. 6F; for requirement for short-term survival (24 hours) and proliferation (82 hours) of human ES cells: factor removed from TeSR, FIG. 6A. As for the experimental part: (§1) (A) Dissociated H1 ES cells were plated into different media (Table 1) on […]-coated plates, and cell survival was measured 24 hours after plating. […] (B) The same ES cells from FIG. […] (C) Dissociated cells were plated in three different media, and initial survival was measured 22 hours after plating (blue column) Proliferation was measured 129 hours after plating (red column) The three media were TESR™, TESR without L-ascorbic acid (TESR-LAA) and a simplified medium containing DMEM/F 12, NaHCO3 LAA, insulin and FGF2 (*p<0.05, n=3). (D) H1 cells were maintained in defined media (DMEM/F12, NaHCO3, Insulin, FGF2 and LAA) for multiple passages with or without selenium. 150,000 starting cells were seeded in each passage on day 0, 4 and 7. (E) Human H1 cells were grown in DMEM/F12, NaHCO3, Insulin, FGF2, LAA and selenium with or without NODAL for four passages, and OCT4 expression was analyzed by FACS. Green peak: anti-OCT4 primary antibody with Alexa-488 secondary antibody; unshaded peak: mouse IgG control. (F) Transferrin was tested with cloning assay in defined media (DMEM/F12, NaHCO3, Insulin, FGF2, LAA, and Selenium); human foreskin iPS cells (Yu et al., Science 318:1917-1920 (2007)) were used in this particular experiment with ROCK inhibitor HA100 (10 μM) in hypoxic conditions (*p<0.05, n=3). […] (G) E8 medium (Table 1), TESR™ and conditioned medium (CM) were tested by cloning assay with HA100 (*p<0.05, n=3). Hypoxia conditions (5% O2 and 10% CO2, red column) and normoxic conditions (5% CO2, blue column) were used in the test (*p<0.05, n=3). […] (H) E8 medium and TESR™ were used to culture ES and iPS cells for long-term expansion, and the proliferation dynamics was recorded in the first seven passages. 200,000 H1 and human foreskin iPS cells (Yu et al., Science 324:797-801 (2009)) were plated in each passage in E8 and TESR™ media in hypoxic conditions.
H1 cells were maintained in specific media for 5 days (2 passages), and RNA was purified for qRT-PCR to detect NANOG expression relative to GAPDH. […] A variety of basic media were used to make growth media with additional components (insulin, FGF2, LAA, Selenium, and NaHCO3). Dissociated H1 cells were plated in different media on […]-coated plates. […] Green peak: OCT4 antibody with Alexa-488 conjugated secondary antibody; Grey peak: mouse IgG control. […] Cells were treated with HA100 (10 μM) and Y27632) (10 μM) for 24 hours, and with blebbistatin (10 μM) for 4 hours (*p<0.05, n=3).

The subject of experiment [2] is H1 cells. The experiment can be described thus: Cloning assay. It counts as cell-based, human. As for the experimental part: To determine how the various vitronectin variants affect cloning efficiency, the vitronectin polypeptide variants were tested in a cloning assay, essentially as described by Chen et al, Cell Stem Cell 7:240-248 (2010), incorporated herein by reference as if set forth in its entirety. Briefly, triplicates for each substrate were prepared in a 12-well plate. Prior to the addition of cells, 500 μL medium was added to each well. Cells were detached from their culture plate and dissociated with TrypLE for 5 minutes or until fully detached. TrypLE was neutralized with equal volumes of basic media, and the cells were counted, washed and then diluted to 5000 cells/mL. 100 μL of this cell suspension (500 cells) was added to each well. Plates were then incubated at 37° C., 5% O2 and 10% CO2 and the medium was changed every 1-2 day(s). After 5-6 days, colonies were stained with an APS kit (Vector Lab) following the manufacturer's instruction and counted.

Experiment [3] has as its system human ES and iPS cells. The experiment can be described thus: Long-term expansion of ES and iPS cells in defined medium. Conditions: for long-term culture stability of human ES and iPS cells: NODAL 100 ng/ml or TGFβ 2 ng/ml added to simple medium. It counts as cell-based. As for the experimental part: as §1, with “FIG. 5A were cultured in the same media with daily media change, and proliferation was measured 96 hours after plating.” for “FIG.”

For experiment [4], the system named is human foreskin iPS cells. Description: Cloning assay in defined media with transferrin. It counts as cell-based. The following applies: defined media with HA100 (10 μM), hypoxic conditions; FIG. 4F. As for the experimental part: FIG. 4 presents media components supporting human ES cell survival and proliferation. (A) Dissociated H1 ES cells were plated into different media (Table 1) on MATRIGEL-coated plates, and cell survival was measured 24 hours after plating. […] (B) The same ES cells from FIG. 5A were cultured in the same media with daily media change, and proliferation was measured 96 hours after plating. […] (C) Dissociated cells were plated in three different media, and initial survival was measured 22 hours after plating (blue column) Proliferation was measured 129 hours after plating (red column) The three media were […] without L-ascorbic acid (TESR-LAA) and a simplified medium containing DMEM/F 12, NaHCO3 LAA, insulin and FGF2 (*p<0.05, n=3). (D) H1 cells were maintained in defined media (DMEM/F12, NaHCO3, Insulin, FGF2 and LAA) for multiple passages with or without selenium. 150,000 starting cells were seeded in each passage on day 0, 4 and 7. (E) Human H1 cells were grown in DMEM/F12, NaHCO3, Insulin, FGF2, LAA and selenium with or without NODAL for four passages, and OCT4 expression was analyzed by FACS. Green peak: anti-OCT4 primary antibody with Alexa-488 secondary antibody; unshaded peak: mouse IgG control. […] (H) E8 medium and […] were used to culture ES and iPS cells for long-term expansion, and the proliferation dynamics was recorded in the first seven passages. […]

Experiment [5] has as its system NANOG expression in H1 cells. Description: NANOG expression by qRT-PCR relative to GAPDH. It counts as cell-based, human. The following applies: NODAL 100 ng/ml or TGFβ 2 ng/ml in defined media; FIG. 6B. As for the experimental part:
FIG. 6 illustrates media components supporting human pluripotent stem cells. […] When those factors were removed, H1 ES cells survived (24 hours, blue columns) and proliferated (82 hours, red columns) as well as in TeSR. […] H1 cells were maintained in specific media for 5 days (2 passages), and RNA was purified for qRT-PCR to detect NANOG expression relative to GAPDH. (C) DMEM/F12 basic media is among the best basic media in the screen that supports human ES cell survival and proliferation. A variety of basic media were used to make growth media with additional components (insulin, FGF2, LAA, Selenium, and NaHCO3). Dissociated H1 cells were plated in different media on MATRIGEL-coated plates. Cell survival was measured at 24 hours (blue column) and cell proliferation at 52 hours (red column) (D) Defined media (DMEM/F12, insulin, FGF2, LAA, and Selenium) with NODAL supports pluripotency of human iPS cells. Flow cytometry detected high expression of pluripotency marker OCT4 in two iPS cell lines. Green peak: OCT4 antibody with Alexa-488 conjugated secondary antibody; Grey peak: mouse IgG control. Similar results were also obtained from H1 and H9 ES cells maintained in the same media. (E) Normal karyotypes were maintained after long-term passage for those iPS cells shown above. […] High OCT4 expression was detected in H1 and iPS cells. […]

Setting [6] is: TESR components in absence of BSA and BME.
Where [7] appears, read: added to defined medium, FIG. 6G.

With FGF2: growth factor medium component, the “cell survival and proliferation” value in experiment [1] (setting [6]) was “remained important for cell survival and proliferation”.

Consider `Cc1ccc2c(c1)C(=O)C1(O)CCN(c3ccccc3)C1=N2` (stereo not drawn) [blebbistatin, reference compound], for which the “initial survival of human ES cells” value in experiment [1] is on record as “improved initial survival”. For the same molecule, the cloning efficiency result in experiment [2] (setting [7]) is “supported a high cloning efficiency”.

`O=C1O[C@H]([C@@H](O)CO)C(O)=C1O` [L-ascorbic acid]: in experiment [1] (TESR components in absence of BSA and BME, FIG. 4C), the ES cell proliferation result is listed as “promoted ES cell proliferation”.

In the case of `O=C(O)C1CCCCN1` (stereo not drawn) [Pipecolic acid], the “requirement for short-term survival (24 hours) and proliferation (82 hours) of human ES cells” value (shortened to “requirement for short-term survival”) in experiment [1] was “not required for short-term survival and proliferation”.

With `NCCCC(=O)O` [GABA], in experiment [1], the “requirement for short-term survival” value was “not required for short-term survival and proliferation”.

Turning to `C[C@@H](N)[C@H]1CC[C@H](C(=O)Nc2ccncc2)CC1` [Y27632, reference compound], in experiment [1], the “initial survival of human ES cells” value is listed as “improved initial survival”. The cloning efficiency result in experiment [2] (setting [7]) was “supported a high cloning efficiency”.

Regarding `[Se]` [selenium], the long-term sustained growth result in experiment [3] (defined media, multiple passages, FIG. 4D) is reported as “necessary for long-term sustained growth”.

As to Insulin: medium component, in experiment [1] (setting [6]), the “cell survival and proliferation” value is “remained important for cell survival and proliferation”.

Take “transferrin: protein medium component of E8”: in experiment [4], the “cloning efficiency on addition of transferrin” value was “further increased”.

`[Cl-].[Li+]` [LiCl]: the “requirement for short-term survival” value in experiment [1] is “not required for short-term survival and proliferation”.

As for `O=S(=O)(c1cccc2cnccc12)N1CCNCC1` [HA100, reference compound], the “cell survival after dissociation” value in experiment [1] (10 μM, TeSR, p<0.05, n=3) is “improved cell survival after dissociation”. For the same molecule, the “initial survival of human ES cells” value in experiment [1] is “improved initial survival”. In addition, the cloning efficiency result in experiment [2] (E8 media, 10 μM for 24 hours, p<0.05, n=3) is “improved cloning efficiency as efficiently as Y27632 and blebbistatin”; in experiment [2] (setting [7]), “supported a high cloning efficiency”.

Turning to TGFβ, the “long-term culture stability of human ES and iPS cells” value in experiment [3] is given as “consistent long-term culture stability”. Moreover, the NANOG expression levels result in experiment [5] is on record as “increased NANOG expression levels”. In addition, in experiment [1], the “requirement for short-term survival” value was “not required for short-term survival and proliferation”.

B1: NODAL: growth factor medium component, 100 ng/mL, interchangeable with TGFβ in E8 media (protein, UniProt Q96S42 238-347, looked up)
Nodal homolog: HHLPDRSQLCRKVKFQVDFNLIGWGSWIIYPKQYNAYRCEGECPNPVGEEFHPTNHAYIQSLLKRYQPHRVPSTCCAPVKTKPLSMLYVDNGRVLLDHHKDMIVEECGCL
Take B1: in experiment [3], the “long-term culture stability of human ES and iPS cells” value is on record as “consistent long-term culture stability”. Also, in experiment [5], the NANOG expression levels result was “increased NANOG expression levels”.
